Assay results: US20070086956A1, “Method for accelerating the rate of mucociliary clearance” (BAYER AKTIENGESELLSCHAFT, priority 1998, published 2007)
Where two headings read alike, the source gives them in different places.

Key:
Bovine chymotrypsin = Bovine chymotrypsin (Bos taurus, UniProt P00766); test: Inhibition of chymotrypsin, Ki; type: biochemical
human plasma kallikrein = target: T1, human plasma kallikrein (Homo sapiens, UniProt P03952); test: Inhibition of human plasma kallikrein, Ki; type: biochemical
T1 construct: purchased Sigma (St. Louis, Mo.)
T1 sequence (P03952 391-638 limits assumed): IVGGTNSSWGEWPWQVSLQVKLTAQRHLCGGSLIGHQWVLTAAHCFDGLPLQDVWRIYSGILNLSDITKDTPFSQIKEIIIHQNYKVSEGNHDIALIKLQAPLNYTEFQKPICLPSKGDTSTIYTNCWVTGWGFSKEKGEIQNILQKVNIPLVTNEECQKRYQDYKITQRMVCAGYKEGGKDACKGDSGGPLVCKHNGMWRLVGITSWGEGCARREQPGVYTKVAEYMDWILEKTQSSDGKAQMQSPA
T1 sequence (P03952 20-390 partner limits assumed): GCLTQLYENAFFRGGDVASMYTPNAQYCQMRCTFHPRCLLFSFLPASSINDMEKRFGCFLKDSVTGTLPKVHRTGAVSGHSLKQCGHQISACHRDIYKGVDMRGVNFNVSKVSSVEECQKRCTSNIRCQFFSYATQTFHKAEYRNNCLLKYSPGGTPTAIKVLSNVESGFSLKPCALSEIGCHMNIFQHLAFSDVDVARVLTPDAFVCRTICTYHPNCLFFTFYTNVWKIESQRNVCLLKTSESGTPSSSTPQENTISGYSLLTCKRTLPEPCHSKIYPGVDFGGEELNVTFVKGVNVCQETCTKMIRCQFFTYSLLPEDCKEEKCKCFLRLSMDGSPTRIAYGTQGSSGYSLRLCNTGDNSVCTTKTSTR
Experimental: (§1) After 5 min. at 37° C., 15 μl of 2 mM GPK-AMC was added and the change in fluorescence (as above) was monitored. […] After 5 min. incubation at 37° C., 25 μl of 20 mM GPK-AMC was added and the change in fluorescence monitored. […] After 5 min. at 37° C. 15 μl of 20 mM PFR-AMC was added and the change in fluorescence monitored.
(§2) After 30 min. incubation at 37° C., 25 μl of 20 mM GPK-AMC was added and the change in fluorescence monitored. […] After 30 min. at 37° C., 5 μl of 20 mM PFR-AMC was added and the change in fluorescence monitored.

human plasmin = target: T2, human plasmin (Homo sapiens, UniProt P00747); test: Inhibition of human plasmin, Ki; type: biochemical; settings: Table 3; Human Plasmin (50 pM); GPK-AMC (0.5 mM)
T2 construct: purchased Sigma (St. Louis, Mo.)
T2 sequence (P00747 581-810 limits assumed): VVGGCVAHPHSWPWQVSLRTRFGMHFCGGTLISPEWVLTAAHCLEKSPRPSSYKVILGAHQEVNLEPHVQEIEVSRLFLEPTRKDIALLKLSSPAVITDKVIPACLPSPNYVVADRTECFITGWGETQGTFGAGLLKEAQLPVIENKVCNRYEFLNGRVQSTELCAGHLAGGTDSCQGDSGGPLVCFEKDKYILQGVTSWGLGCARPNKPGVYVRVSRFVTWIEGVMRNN
T2 sequence (P00747 97-580 partner limits assumed): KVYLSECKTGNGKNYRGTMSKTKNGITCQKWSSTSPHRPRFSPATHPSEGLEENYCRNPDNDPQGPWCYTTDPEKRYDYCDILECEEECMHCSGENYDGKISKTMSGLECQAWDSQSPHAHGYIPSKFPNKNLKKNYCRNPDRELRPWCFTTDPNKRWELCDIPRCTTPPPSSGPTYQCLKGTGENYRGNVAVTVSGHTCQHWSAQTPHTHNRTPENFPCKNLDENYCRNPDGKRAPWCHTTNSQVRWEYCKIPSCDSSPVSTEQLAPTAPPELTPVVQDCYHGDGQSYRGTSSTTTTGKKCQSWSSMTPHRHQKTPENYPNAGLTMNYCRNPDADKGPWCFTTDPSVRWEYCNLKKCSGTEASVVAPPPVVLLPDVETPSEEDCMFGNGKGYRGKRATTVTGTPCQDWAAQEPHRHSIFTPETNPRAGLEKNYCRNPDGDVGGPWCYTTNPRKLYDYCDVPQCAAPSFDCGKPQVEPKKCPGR
Experimental: as §1, §2

[1] = target: T3, human neutrophil elastase (Homo sapiens, UniProt P08246); test: Inhibition of human neutrophil elastase, Ki (Dixon plots); type: biochemical; settings: Table 3; Human Neutrophil Elastase (19 nM)
T3 sequence (P08246 30-267): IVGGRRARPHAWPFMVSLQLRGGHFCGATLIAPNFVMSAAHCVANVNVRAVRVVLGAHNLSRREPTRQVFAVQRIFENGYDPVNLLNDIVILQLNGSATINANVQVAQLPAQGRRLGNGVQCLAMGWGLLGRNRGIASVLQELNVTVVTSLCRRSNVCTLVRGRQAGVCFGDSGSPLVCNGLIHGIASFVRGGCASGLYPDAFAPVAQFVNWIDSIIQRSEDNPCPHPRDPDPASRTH
Experimental: […] Ki values were determined from Dixon plots of the form 1/V versus performed at two different substrate concentrations (Dixon et al., 1979).

human tissue kallikrein = target: T4, human tissue kallikrein (Homo sapiens, UniProt P06870); test: Inhibition of human tissue kallikrein, Ki; type: biochemical; settings: Table 3; Human Tissue Kallikrein (0.35 nM); PFR-AMC (10 μM)
T4 construct: purchased Bayer, Germany
T4 sequence (P06870 25-262): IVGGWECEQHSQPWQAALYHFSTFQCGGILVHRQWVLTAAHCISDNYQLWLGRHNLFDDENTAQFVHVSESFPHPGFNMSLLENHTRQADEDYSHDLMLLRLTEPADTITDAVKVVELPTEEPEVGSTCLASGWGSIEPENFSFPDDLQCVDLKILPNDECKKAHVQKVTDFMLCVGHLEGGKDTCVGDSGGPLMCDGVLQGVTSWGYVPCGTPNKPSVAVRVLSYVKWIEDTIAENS
Experimental: After 5 min. at 37° C., 5 ul of 2 mM PFR-AMC was added achieving 10 uM final and the change in fluorescence monitored. The Km for PFR-AMC with human tissue kallikrein under the conditions employed was 5.7 uM.
After 5 min. at 37° C., 5 μl of 2 mM PFR-AMC was added and the change in fluorescence monitored.
After 5 min. at 37° C., 5 ul of 2 mM PFR-AMC was added achieving 10 uM final concentration and the change in fluorescence monitored.

human factor Xa = target: T5, human factor Xa (Homo sapiens, UniProt P00742); test: Inhibition of human factor Xa; type: biochemical; settings: Table 3; factor Xa (0.87 nM); LGR-AMC (0.6 mM)
T5 construct: purchased American Diagnostica, Inc, Greenwich, Conn
T5 sequence (P00742 235-488 limits assumed): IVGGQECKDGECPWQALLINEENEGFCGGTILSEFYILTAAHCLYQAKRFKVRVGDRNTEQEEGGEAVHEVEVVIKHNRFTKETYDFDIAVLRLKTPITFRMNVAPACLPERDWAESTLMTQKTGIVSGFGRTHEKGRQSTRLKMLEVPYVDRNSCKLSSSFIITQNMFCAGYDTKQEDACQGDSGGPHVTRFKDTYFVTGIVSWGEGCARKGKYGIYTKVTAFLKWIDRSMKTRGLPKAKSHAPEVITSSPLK
T5 sequence (P00742 41-179 partner limits assumed): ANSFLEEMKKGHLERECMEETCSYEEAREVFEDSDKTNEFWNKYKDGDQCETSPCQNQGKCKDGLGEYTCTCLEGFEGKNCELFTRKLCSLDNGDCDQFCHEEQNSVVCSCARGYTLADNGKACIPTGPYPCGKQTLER
Experimental: (§3) After 5 min. at 37° C., 30 ul of 20 mM LGR-AMC (Sigma) was added and the change in fluorescence monitored. […] After 5 min. at 37° C., 35 ul of 20 mM GGR-AMC (Sigma) was added and the change in fluorescence monitored.

human urokinase = target: T6, human urokinase (Homo sapiens, UniProt P00749); test: Inhibition of human urokinase, Ki; type: biochemical; settings: Table 3, GGR-AMC (0.7 mM)
T6 construct: purchased Sigma
Experimental: as §3

[2] = test system: human bronchial epithelial cell (HBE); test: Short circuit current (Isc) in cultured human bronchial epithelial (HBE) cells, Ussing chamber; type: cell-based; settings: for sodium current: 0.5 to 5 ug/mL (0.5, 1.5 and 5 ug/mL), 90 minute period
Experimental: Tertiary HBE cell monolayer grown to confluence were mounted in modified Ussing chambers, immersed in Krebs buffer (KBR) solution and bubbled with 95% O2/5% CO2 warmed to 37 C.
Cells were left to equilibrate for 20 minutes before calibrating for background noise and fluid resistance. Transepithelial potential difference was then clamped to 0 mV using a WPI EVC 4000 voltage clamp. Ag/AgCl electrodes were used to monitor Isc. […] Once a response to amiloride was seen, it was washed out with KBR solution. […] 90 minutes following agent treatment, amiloride (10 uM) was added. Once the current was stable forskolin (10 uM) and then bumetanide (100 uM) was added.
Tertiary HBE cell monolayers grown to confluence were mounted in modified Ussing chambers, immersed in Krebs buffer (KBR) solution and bubbled with 95% O2/5% CO2 warmed to 37 C.
Cells were left to equilibrate for 20 minutes before calibrating for background noise and fluid resistance. Transepithelial potential difference was then clamped to 0 mV using a WPI EVC 4000 voltage clamp. Ag/AgCI electrodes were used to monitor Isc. […] Once a response to amiloride was seen, it was washed out with KBR solution. […] 90 minutes following agent treatment, amiloride (10 uM) was added.

allergic sheep = settings: cited from earlier work
[3] = test system: human CF bronchial epithelial cells; test: Short circuit current (Isc) in cultured human cystic fibrosis bronchial epithelial cells; type: cell-based
Experimental: HBE cells were isolated from CF patient lung transplant tissue and grown in collagen coated flasks for one week. The cells were then passaged and seeded onto collagen coated Costar Transwell filters (0.33 cm2) and grown in DMEM/F12 media supplemented with 2% Ultroser G. Cells were grown at an air liquid interface and used 2 to 4 weeks after seeding:
Cells on the Transwell filters were mounted in modified Costar Ussing chambers and studied under Isc conditions. […] Isc was recorded for 100 minutes and then the apical bath fluid was exchanged with fresh buffer. Trypsin (100 BAEE units/mL) was added to the apical side and Isc recorded for 10 minutes. Amiloride (10 uM) was then added to the apical side and Isc was recorded for a further 10 minutes.
HBE cells were isolated from CF patient lung transplant tissue and grown in collagen coated flasks for one week. The cells were then passaged and seeded onto collagen coated Costar Transwell filters (0.33 cm^2) and grown in DMEM/F12 media supplemented with 2% Ultroser G. Cells were grown at an air liquid interface and used 2 to 4 weeks after seeding.
Cells on the Transwell filters were mounted in modified Costar Ussing chambers and studied under Isc conditions. […] Isc was recorded for 90 minutes and then amiloride (10 uM) was added and Isc was recorded for a further 10 minutes. The apical bath fluid was then exchanged with fresh buffer, and Isc was recorded for a further 15 minutes. Trypsin (1 uM) was added to the apical side and Isc recorded for 15 minutes. Amiloride (10 uM) was then added to the apical side and Isc was recorded for a further 10 minutes.

A6 cells = settings: exposure of the apical membrane (Vallet et al 1997; Chraibi et al 1998), cited from earlier work
guinea pig trachea [4] = test: Tracheal mucus velocity (TMV) in the guinea-pig; type: in vivo
Experimental: The aim of this study was to investigate the effect of the Kunitz family serine protease inhibitor Bikunin on guinea-pig tracheal mucus velocity 1.5 hours post treatment. This agent was delivered into the cephalad trachea by topical instillation. TMV was monitored 1.5 hours later for 60 mins. The procedure used in this Example is described in Newton et al. in “Cila, Mucus and Mucociliary Interactions,” Ed., Baum, G. L. et al., Marcel Dekker, New York, 1998; Newton et al., Ped. Pulm. S17, Abs. 364, 1998). […]
TMV was monitored using a lead collimated miniature Beta particle detector probe arranged to detect the radioactivity emitted from an injected aliquot of ^32P-labelled Saccharomyces cerevisiae as it was transported on the tracheal mucociliary layer of an anaesthetized guinea pig (Newton and Hall 1998) FIG. 16(a) illustrates the arrangement of the syringe and beta probe. FIG. 16(b) illustrates the counts detected by the probe as the ^32P-labelled S. cerevisiae is transported along the tracheal mucociliary layer. […]
The aim of this comparative study was to investigate the effect of hypertonic saline (14.4%×5 min) on guinea-pig tracheal mucus velocity. […] TMV was monitored immediately and every 15 minutes for 30 minutes. […]

guinea pig trachea [5] = settings: 10 mM, 20 minute aerosol; 15 minutes after; n=8 (Newton et al 1998); cited from earlier work
diseased patients = settings: inhalation; diseased patients (Robinson et al 1997; App et al 1990); cited from earlier work

## CC[C@H](C)[C@@H]1NC(=O)[C@H](Cc2ccccc2)NC(=O)[C@H](CC(N)=O)NC(=O)[C@H](CC(N)=O)NC(=O)[C@@H]2CSSC[C@@H]3NC(=O)[C@H](C)NC(=O)[C@H](CCC(=O)O)NC(=O)[C@H](CCC(=O)O)NC(=O)[C@H](CO)NC(=O)[C@H](CCCNC(=N)N)NC(=O)[C@H](Cc4ccc(O)cc4)NC(=O)[C@H](CO)NC(=O)[C@H](CC(N)=O)NC(=O)[C@H](CCCCN)NC(=O)[C@H](CC(N)=O)NC(=O)CNC(=O)[C@H](CCCNC(=N)N)NC(=O)[C@H](CSSC[C@H](NC(=O)[C@@H]4CCCN4C(=O)CNC(=O)[C@H]([C@@H](C)O)NC(=O)[C@H](C(C)C)NC(=O)[C@H](C)NC(=O)[C@H](CC(N)=O)NC(=O)[C@H](C)NC(=O)[C@H]([C@@H](C)O)NC(=O)[C@@H](NC(=O)[C@H](Cc4ccc(O)cc4)NC(=O)[C@H](CCC(=O)O)NC(=O)[C@H](CCC(=O)O)NC(=O)[C@@H](N)Cc4ccc(O)cc4)CSSC[C@@H](C(=O)N[C@@H](Cc4ccccc4)C(=O)N[C@@H](CCCNC(=N)N)C(=O)N[C@@H](CCC(N)=O)C(=O)O)NC(=O)[C@H](CCCNC(=N)N)NC(=O)[C@H](CC(C)C)NC(=O)[C@H](CCSC)NC3=O)C(=O)N[C@@H](CCCNC(=N)N)C(=O)N[C@@H](C)C(=O)N[C@@H](CO)C(=O)N[C@@H](Cc3ccccc3)C(=O)N3CCC[C@H]3C(=O)N[C@@H](CCCNC(=N)N)C(=O)N[C@@H](Cc3c[nH]c4ccccc34)C(=O)N[C@@H](Cc3ccc(O)cc3)C(=O)N[C@@H](Cc3ccccc3)C(=O)N[C@@H](CC(=O)O)C(=O)N[C@@H](C(C)C)C(=O)N[C@@H](CCC(=O)O)C(=O)N[C@@H](CCCNC(=N)N)C(=O)N[C@@H](CC(N)=O)C(=O)N[C@@H](CO)C(=O)N2)NC(=O)CNC(=O)CNC(=O)[C@H](Cc2ccc(O)cc2)NC1=O [Bikunin (102-159)]
Bovine chymotrypsin; Table 3, Chymotrypsin (5 nM), AAPF-pNA (0.08 mM)
  Ki: 0.24 nM
Bovine chymotrypsin; Table 4A, Bovine chymotrypsin (5 nM)
  Ki: 0.2 nM
Human plasma kallikrein; Table 3, Human Plasma Kallikrein (2.5 nM), PFR-AMC (0.3 mM)
  Ki: 0.3 nM
Human plasma kallikrein; Table 4A, Human Plasma Kallikrein (2.5 nM)
  Ki: 0.3 nM
Human plasma kallikrein; Table 4B, Human Plasma Kallikrein ([…] nM)
  Ki: 0.7 nM
Human plasmin
  Ki: 1.8 nM
[1]
  Ki: 323 nM
Human tissue kallikrein
  Ki: 0.13 nM
Human factor Xa
  Ki: 274 nM
Human urokinase
  Ki: 11000 nM

## α1-PI: serpin-family serine protease inhibitor alpha(1)-protease inhibitor
[2]; 50 ug.ml−1, normal HBE cells, further study
  effect on Na+ Isc: without a significant effect
Allergic sheep; 10 mg given 30 min before or 1 h after antigen challenge, 6 h after challenge
  antigen-induced reduction in TMV: attenuated antigen-induced reduction in TMV
Allergic sheep; administered on its own (no antigen challenge), over a 6 h period
  baseline TMV: no effect on baseline TMV
Allergic sheep; given 6 h after antigen challenge, at 24 h after challenge
  antigen-induced fall in TMV: significant reversal of the antigen-induced fall in TMV

## Aprotinin
[2]; 5 ug/mL, FIG. 20
  sodium short circuit current: decrease sodium short circuit current
[3]; 20 ug/mL, 90 minutes after apical application
  Isc: decreases sodium current
[3]; 20 ug/mL, 90 minutes after apical application, listed as aprotinin
  Isc: inhibited Isc
[3]; 1 mg/mL in PBS, over a 100 minute period, FIG. 21
  Isc: inhibited Isc
A6 cells
  transepithelial Na+ transport: reduce transepithelial Na^+ transport
A6 cells; listed as aprotinin
  transepithelial Na+ transport: reduced transepithelial Na^+ transport

## Des Pro2-Ser10-Arg15-Asp24-Thr26-Glu31-Asn41-Glu53-Aprotinin [Aprotinin double mutein]
[2]; FIG. 20
  sodium current: dose dependently inhibited sodium current
[2]; FIG. 20, listed as aprotinin double mutein
  sodium current: decrease sodium short circuit current
Guinea pig trachea [4]; 10 ug, relative to HBSS, 1.5 to 2.5 hours following administration, FIG. 26
  TMV: increased TMV

## N=C(N)NC(=O)c1nc(Cl)c(N)nc1N [amiloride, reference compound]
[3]; 10 uM, apical, after trypsin
  Isc: inhibited the majority of the current
Guinea pig trachea [4]; 10 mM x 20 mins aerosol, 15 minutes after aerosol, FIG. 19
  TMV: statistically significant increase in TMV
Guinea pig trachea [5]
  TMV: 8.1±0.3 mm.min^−1
Diseased patients
  MCC: significantly increase MCC
